In the supplement of paper PMC6045584:

Tests used:
Assay in all cases: area under dose-response curve of surviving fraction (unscaled, Aref=0) (surviving fraction x log10(nM)); higher = more resistant
Conditions in all cases: exposure time: 5 days; dose range 0.5-1000 nM
[1] = compound: COc1cc2nccc(Oc3ccc(NC(=O)NC4CC4)c(Cl)c3)c2cc1C(N)=O [LENVATINIB]
Summary of the method: (§1)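 Tumour cell lines in 384-well plates were exposed for five days to eight inhibitor concentrations from 0.5 to 1000 nM. Viability was read by CellTiter-Glo luminescence, normalised to DMSO-only wells, in three screens per line. Dose-response survival curves were fitted to surviving fractions by 3-parameter logistic regression in the drc R package. Area under the curve is the unscaled activity area (Aref = 0) over log10 dose.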

[2] = compound: COc1ccc(-c2cc3c(C)nc(N)nc3n([C@H]3CC[C@H](OCCO)CC3)c2=O)cn1
Summary of the method: as §1

[3] = compound: C[C@@H]1CN(CC(=O)Nc2ccc3c(c2)Cc2cccc(-c4cc(=O)cc(N5CCOCC5)o4)c2S3)C[C@H](C)O1
Summary of the method: as §1

[4] = compound: Cc1ccc(NC(=O)c2ccc(CN3CCN(C)CC3)cc2)cc1Nc1nccc(-c2cccnc2)n1 [IMATINIB]
Summary of the method: as §1

[5] = compound: Cc1cn(-c2cc(NC(=O)c3ccc(C)c(Nc4nccc(-c5cccnc5)n4)c3)cc(C(F)(F)F)c2)cn1 [NILOTINIB]
Summary of the method: as §1

[6] = compound: Cn1c(=O)n(-c2ccc(C(C)(C)C#N)cc2)c2c3cc(-c4cnc5ccccc5c4)ccc3ncc21 [BEZ-235]
Summary of the method: as §1

[7] = compound: Cn1ncnc1[C@H]1c2n[nH]c(=O)c3cc(F)cc(c23)N[C@@H]1c1ccc(F)cc1 [BMN-673]
Summary of the method: as §1

[8] = compound: O=C(CCCCCCC(=O)Nc1ccccc1)NO [VORINOSTAT]
Summary of the method: as §1

[9] = compound: CCc1cc(Nc2nccc(-c3c(-c4ccc(OC)c(C(=O)Nc5c(F)cccc5F)c4)nc4ccccn34)n2)c(OC)cc1N1CCC(N2CCN(S(C)(=O)=O)CC2)CC1
Summary of the method: as §1

[10] = compound: C[C@H](CN(C)C)Oc1nc(Nc2cc3cccc(Cl)c3cn2)cnc1C#N
Summary of the method: as §1

Row | Test System | area under dose-response curve [1] | area under dose-response curve [2] | area under dose-response curve [3] | area under dose-response curve [4] | area under dose-response curve [5] | area under dose-response curve [6] | area under dose-response curve [7] | area under dose-response curve [8] | area under dose-response curve [9] | area under dose-response curve [10]
1 | 22RV1 PROSTATE | 3.44 | 1.98 | 3.54 | 3.51 | 3.59 | 2.09 | 2.4 | 3.27 |  | 
2 | 93VU HEADNECK | 3.67 | 2.13 |  | 3.93 |  | 2.65 |  | 3.25 | 3.51 | 3.44
3 | 143B BONE | 3.51 | 2.78 | 3.28 |  |  | 2.55 |  | 3.26 | 3.38 | 
4 | A549 LUNG | 3.51 | 2.8 | 3.58 | 3.65 | 3.59 | 2.55 | 3.58 |  | 3.29 | 3.25
5 | ASKA SYNOVIAL | 3.69 | 2 | 3.87 | 3.79 | 3.26 | 2.61 | 1.83 | 3.14 | 3.91 | 2.79
6 | BT20 BREAST | 3.71 | 2.52 |  | 4.15 | 3.28 | 2.35 | 2.9 |  |  | 4.01
7 | BT549 BREAST | 3.7 | 2.15 | 2.89 | 3.76 | 3.42 | 2.29 | 2.53 |  | 3.58 | 2.68
8 | C33A CERVIX | 3.26 | 2.1 | 3.44 | 3.47 | 3.63 | 2.24 | 1.82 |  | 2.94 | 3
9 | CADOES1 SOFT TISSUE | 2.86 | 2.15 | 3.25 | 3.08 |  | 2.12 | 1.72 | 2.16 | 3.13 | 2.48
10 | CAL51 BREAST | 3.18 | 2.28 | 3.27 | 3.53 | 3.22 | 1.99 | 1.22 | 3.06 | 3.35 | 2.73
11 | CAL72 BONE |  | 2.62 | 3.2 | 3.71 | 3.29 | 2.3 | 3.14 | 3.52 | 3.56 | 2.93
12 | CAL120 BREAST | 3.14 | 2.16 | 3.33 | 3.08 | 3.5 | 2.06 | 2.16 | 2.69 | 3.17 | 3.04
13 | CASKI CERVIX | 3.28 | 1.97 | 2.98 | 3.28 | 2.97 | 1.99 | 2.72 | 2.94 | 3.15 | 2.76
14 | CHLA90 AUTONOMIC GANGLIA | 3.23 | 2.37 | 3.37 | 3.45 | 3.5 | 2.25 | 2.97 | 3.28 | 3.16 | 2.86
15 | CME SYNOVIAL |  | 2.55 |  |  |  |  | 0.962 |  |  | 4.25
16 | COLO320DM LARGE INTESTINE | 3.67 | 2.16 | 3.46 | 3.72 |  | 2.61 | 2.75 | 3.04 | 3.7 | 2.74
17 | DU4475 BREAST |  | 1.53 | 3.52 | 3.54 | 3.45 | 1.94 | 1.63 |  | 3.05 | 3.04
18 | H23 LUNG | 3.58 | 1.86 | 3.59 | 3.56 | 3.78 | 2.16 | 2.65 | 3.81 |  | 3.29
19 | HCC78 LUNG | 3.39 | 1.41 | 3.9 | 3.61 |  | 2.2 | 2.26 | 2.95 | 2.74 | 2.74

Row | Test System | area under dose-response curve [1] | area under dose-response curve [2] | area under dose-response curve [3] | area under dose-response curve [4] | area under dose-response curve [5] | area under dose-response curve [6] | area under dose-response curve [7] | area under dose-response curve [8] | area under dose-response curve [9] | area under dose-response curve [10]
20 | HCC202 BREAST |  | 2.16 | 3.04 |  |  | 2.62 |  | 2.75 | 4 | 
21 | HCC1395 BREAST | 3.23 | 2.91 | 3.09 | 4.07 | 3.22 | 3.18 | 2.84 | 3.8 | 3 | 
22 | HCC1806 BREAST | 3.49 | 2.72 | 3.06 | 3.65 | 2.94 | 2.63 | 1.26 | 3 | 3.26 | 2.4
23 | HCC1954 BREAST | 3.2 | 2.09 | 2.82 | 3.5 | 2.74 | 2.11 |  | 3.06 | 3.23 | 3.14
24 | HCT15 LARGE INTESTINE | 3.67 | 2.38 | 3.44 | 3.74 | 3.52 | 2.4 | 2.22 | 3.26 | 3.39 | 3.27
25 | HELA CERVIX | 3.67 | 2.88 | 3.72 | 3.58 | 3.53 | 3.17 | 3.22 | 3.3 | 3.49 | 3.28
26 | HOSMNG BONE | 3.46 | 2.74 | 3.27 | 3.46 | 3.21 | 2.74 | 3.19 |  | 3.35 | 3.22
27 | HU09 BONE | 2.42 | 1.71 | 3.39 | 2.91 | 2.76 | 2.26 | 2.02 | 3.08 |  | 2.89
28 | KPD BONE |  | 1.97 | 3.21 | 3.49 | 3.25 | 2.12 | 1.92 |  | 3.24 | 2.98
29 | MDAMB134 BREAST | 3.62 | 2.33 | 2.76 | 3.48 | 2.75 | 2.79 | 3.21 | 2.92 |  | 2.31
30 | MDAMB157 BREAST | 3.03 | 2.35 | 3.25 |  | 3.49 | 2.72 | 2.09 | 3.15 | 3.26 | 2.75
31 | MDAMB468 BREAST | 3.61 | 2.59 | 3.17 | 3.53 | 3.07 | 2.83 | 2.09 |  | 3.5 | 3.03
32 | MFM223 BREAST | 2.7 | 2.27 | 3.36 | 3.93 | 3.16 | 2.45 | 3 | 3.21 | 3.77 | 
33 | NCIH441 LUNG | 3.46 | 2.77 | 3.5 | 3.69 |  | 3.03 | 2.71 | 3.23 | 3.27 | 
34 | NOS1 BONE | 2.79 | 2.25 |  |  | 2.94 | 2.32 | 2.26 |  | 3.75 | 2.6
35 | NY BONE | 3.21 | 2.35 | 3.49 |  | 3.51 | 2.76 | 2.86 | 3.06 |  | 2.58
36 | PCI30 HEADNECK | 3.61 | 2.34 | 3.24 | 3.49 |  | 2.54 | 2.82 | 3.21 | 3.27 | 2.74
37 | RDES SOFT TISSUE | 3.93 | 2.91 |  |  |  |  | 2.03 | 3.64 | 3.71 | 4.28
38 | S68 BREAST | 3.45 | 1.84 |  | 3.6 | 2.73 | 2.14 | 1.74 | 3.12 |  | 2.49

Row | Test System | area under dose-response curve [1] | area under dose-response curve [2] | area under dose-response curve [3] | area under dose-response curve [4] | area under dose-response curve [5] | area under dose-response curve [6] | area under dose-response curve [7] | area under dose-response curve [8] | area under dose-response curve [9] | area under dose-response curve [10]
39 | SAOS2 BONE | 3.65 | 2.29 | 3.16 | 3.89 | 3.18 | 2.74 | 2.32 |  | 3.69 | 
40 | SCC003 HEADNECK | 3.75 | 2.7 | 3.42 | 3.7 | 3.21 | 2.63 | 2.8 |  | 3.47 | 3.46
41 | SCC47 HEADNECK | 3.62 | 2.79 | 3.53 | 3.94 | 3.44 | 2.85 |  | 3.47 | 3.42 | 3.17
42 | SCC90 HEADNECK | 3.91 | 2.3 |  | 3.71 |  | 2.68 | 3.31 |  | 3.49 | 2.62
43 | SG27 HEADNECK | 3.51 | 2.65 | 3.35 | 3.66 | 3.63 | 3.01 |  |  | 3.63 | 3.57
44 | SG28 HEADNECK | 3.48 | 2.44 |  |  |  | 2.58 |  |  | 3.59 | 
45 | SG31 HEADNECK | 3.43 | 2.18 | 3.26 |  | 3.85 | 2.43 |  |  | 3.44 | 
46 | SG32 HEADNECK | 3.96 | 2.95 | 3.15 | 3.6 | 3.05 | 2.45 | 3.1 | 3.07 | 3.97 | 
47 | SG43 HEADNECK | 3.03 | 1.92 |  | 3.35 | 4.68 | 2.72 | 2.45 | 3.27 | 3.51 | 2.79
48 | SJSA1 BONE | 3.51 | 2.46 | 3.26 |  | 5.57 | 2.51 | 4.84 | 2.78 | 3.48 | 5.38
49 | SKBR3 BREAST | 3.48 | 1.77 | 3.21 | 3.66 | 2.88 | 2.41 | 2.55 | 3 |  | 3.03
50 | SNU475 LIVER |  | 2.13 | 3.13 | 3.51 | 3.21 | 2.04 | 2.83 | 3.12 | 3.12 | 
51 | SUM44 BREAST | 3.41 | 2.6 | 3.07 |  | 3.21 | 2.29 | 3.29 | 2.88 |  | 2.65
52 | SUM149 BREAST |  | 2.28 | 3.07 | 3.23 | 2.88 | 2.39 | 0.994 |  | 3.6 | 2.65
53 | SUM149.B1*.S BREAST | 3.96 | 2.71 |  | 3.85 | 3.68 | 3.03 | 2.65 |  | 3.62 | 
54 | SUM159 BREAST | 3.64 | 2.51 | 3.65 | 3.7 | 3.57 | 2.52 | 3.52 | 3.01 |  | 3.44
55 | VCAP PROSTATE |  | 2.35 | 3.6 | 3.67 | 3.26 | 2.82 | 2.63 | 2.98 | 3.37 | 3.1
56 | YAMATO SYNOVIAL |  | 2.19 |  |  |  | 2.84 | 2.65 |  | 4.39 | 
57 | ZR751 BREAST |  | 1.71 | 3.26 |  | 3.01 | 2.35 | 3.29 | 4.01 | 3.02 | 2.92
